Measured values published in US10947271B2, “Antibacterial agents” (THE UNIVERSITY OF QUEENSLAND, priority 2014, dated 2021).

Legend:
Assay type in all cases: cell-based
Conditions in all cases: 24 h incubation, visual reading
[1] = test system: Staphylococcus aureus MRSA ATCC 43300; assay: MIC assay, S. aureus MRSA ATCC 43300
Outline: (§1)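 Overnight MHB cultures at 37° C were diluted 40-fold and grown 2-3 hrs to mid-log, then added at 5×10e5 CFU/mL to twofold compound dilutions (8 to 0.003 μg/ml). Plates were incubated 24 h at 37° C and MIC scored by eye.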

[2] = test system: Streptococcus pneumoniae MDR ATCC 700677; assay: MIC assay, S. pneumoniae MDR ATCC 700677
Outline: as §1

[3] = test system: Enterococcus faecium MDR Van A ATCC 51559; assay: MIC assay, E. faecium MDR Van A ATCC 51559
Outline: as §1

Structure (SMILES) | Minimum Inhibitory Concentration (MIC) Staph. aureus ATCC43300 [1] | Minimum Inhibitory Concentration (MIC) S. pneumoniae ATCC 700677 [2] | Minimum Inhibitory Concentration (MIC) E. faecium ATCC51559 [3]
CCCCCCCC(=O)NCCCC[C@H](NC(=O)CCCCCCC)C(=O)N[C@@H](CCCCN)C(=O)N[C@@H](CCCCN)C(=O)N[C@@H](CCCCNC(=O)[C@H]1NC(=O)[C@H]2NC(=O)[C@H](NC(=O)[C@@H]3NC(=O)[C@H](CC(N)=O)NC(=O)[C@H](NC(=O)[C@@H](CC(C)C)NC)[C@H](O)c4ccc(c(Cl)c4)Oc4cc3cc(c4O[C@@H]3O[C@H](CO)[C@@H](O)[C@H](O)[C@H]3O[C@H]3C[C@](C)(N)[C@H](O)[C@H](C)O3)Oc3ccc(cc3Cl)[C@H]2O)c2ccc(O)c(c2)-c2c(O)cc(O)cc21)C(=O)NC [MCC_000654] | xxxxx (xxxxx = <0.01) | xxxx (xxxx = 0.01-<0.1) | xx (xx = 1-4)
CNC(CC(C)C)C(=O)NC1C(=O)NC(CC(N)=O)C(=O)NC2C(=O)NC3C(=O)NC(C(=O)NC(C(=O)NCCCCC(NC(=O)C(CCCCN)NC(=O)C(CCCCN)NC(=O)CNC(=O)c4ccc(Oc5ccccc5)cc4)C(=O)O)c4cc(O)cc(O)c4-c4cc3ccc4O)C(O)c3ccc(c(Cl)c3)Oc3cc2cc(c3OC2OC(CO)C(O)C(O)C2OC2CC(C)(N)C(O)C(C)O2)Oc2ccc(cc2Cl)C1O (stereo not drawn) [MCC_000381] | xxx (xxx = 0.1-<1) | xx (xx = 1-4) | x (x = >4)
CNC(CC(C)C)C(=O)NC1C(=O)NC(CC(N)=O)C(=O)NC2C(=O)NC3C(=O)NC(C(=O)NC(C(=O)NCCCCC(NC(=O)C(CCCCN)NC(=O)C(CCCCN)NC(=O)C(CCCCN)NC(=O)C(CCCCNC(=O)c4ccc(Oc5ccccc5)cc4)NC(=O)c4ccc(Oc5ccccc5)cc4)C(=O)O)c4cc(O)cc(O)c4-c4cc3ccc4O)C(O)c3ccc(c(Cl)c3)Oc3cc2cc(c3OC2OC(CO)C(O)C(O)C2OC2CC(C)(N)C(O)C(C)O2)Oc2ccc(cc2Cl)C1O (stereo not drawn) [MCC_000230] | xxxxx (xxxxx = <0.01) | xxxx (xxxx = 0.01-<0.1) | xxx (xxx = 0.1-<1)
CNC(=O)C(CCCCNC(=O)C1NC(=O)C2NC(=O)C(NC(=O)C3NC(=O)C(CC(N)=O)NC(=O)C(NC(=O)C(CC(C)C)NC)C(O)c4ccc(c(Cl)c4)Oc4cc3cc(c4OC3OC(CO)C(O)C(O)C3OC3CC(C)(N)C(O)C(C)O3)Oc3ccc(cc3Cl)C2O)c2ccc(O)c(c2)-c2c(O)cc(O)cc21)NC(=O)C(CCCCN)NC(=O)C(CCCCNC(=O)c1ccc(OCc2ccccc2)cc1)NC(=O)c1ccc(OCc2ccccc2)cc1 (stereo not drawn) [MCC_000519] | xxxxx (xxxxx = <0.01) | xxxxx (xxxxx = <0.01) | xx (xx = 1-4)
CCCCCCCCCC(=O)NC(CCCCN(C)C)C(=O)NCCCNC(=O)C1NC(=O)C2NC(=O)C(NC(=O)C3NC(=O)C(CC(N)=O)NC(=O)C(NC(=O)C(CC(C)C)NC)C(O)c4ccc(c(Cl)c4)Oc4cc3cc(c4OC3OC(CO)C(O)C(O)C3OC3CC(C)(N)C(O)C(C)O3)Oc3ccc(cc3Cl)C2O)c2ccc(O)c(c2)-c2c(O)cc(O)cc21 (stereo not drawn) [MCC_007339] | xxxx (xxxx = 0.01-<0.1) | xxxx (xxxx = 0.01-<0.1) | xx (xx = 1-4)
CCCCCCCCCCCCCC(=O)N[C@@H](CCCCN)C(=O)N[C@@H](CCCCN)C(=O)N[C@@H](CCCCNC(=O)[C@H]1NC(=O)[C@H]2NC(=O)[C@H](NC(=O)[C@@H]3NC(=O)[C@H](CC(N)=O)NC(=O)[C@H](NC(=O)[C@@H](CC(C)C)NC)[C@H](O)c4ccc(c(Cl)c4)Oc4cc3cc(c4O[C@@H]3O[C@H](CO)[C@@H](O)[C@H](O)[C@H]3O[C@H]3C[C@](C)(N)[C@H](O)[C@H](C)O3)Oc3ccc(cc3Cl)[C@H]2O)c2ccc(O)c(c2)-c2c(O)cc(O)cc21)C(=O)NC [MCC_000224] | xxxxx (xxxxx = <0.01) | xxxxx (xxxxx = <0.01) | xxx (xxx = 0.1-<1)
CCCCCCC(CCCC)C(=O)NC(CCCCN)C(=O)NC(CCCCN)C(=O)NC(CCCCNC(=O)C1NC(=O)C2NC(=O)C(NC(=O)C3NC(=O)C(CC(N)=O)NC(=O)C(NC(=O)C(CC(C)C)NC)C(O)c4ccc(c(Cl)c4)Oc4cc3cc(c4OC3OC(CO)C(O)C(O)C3OC3CC(C)(N)C(O)C(C)O3)Oc3ccc(cc3Cl)C2O)c2ccc(O)c(c2)-c2c(O)cc(O)cc21)C(=O)NC (stereo not drawn) [MCC_000496] | xxxx (xxxx = 0.01-<0.1) | xxx (xxx = 0.1-<1) | x (x = >4)
CCCCCCCC(=O)N[C@@H](CCCCN)C(=O)NCCNC(=O)[C@H]1NC(=O)[C@H]2NC(=O)[C@H](NC(=O)[C@@H]3NC(=O)[C@H](CC(N)=O)NC(=O)[C@H](NC(=O)[C@@H](CC(C)C)NC)[C@H](O)c4ccc(c(Cl)c4)Oc4cc3cc(c4O[C@@H]3O[C@H](CO)[C@@H](O)[C@H](O)[C@H]3O[C@H]3C[C@](C)(N)[C@H](O)[C@H](C)O3)Oc3ccc(cc3Cl)[C@H]2O)c2ccc(O)c(c2)-c2c(O)cc(O)cc21 [MCC_005183] | xxx (xxx = 0.1-<1) | xxx (xxx = 0.1-<1) | x (x = >4)
CCCCCCCCCCCCC(=O)N[C@@H](CCCCN)C(=O)N[C@@H](CCCCN)C(=O)N[C@@H](CCCCNC(=O)[C@H]1NC(=O)[C@H]2NC(=O)[C@H](NC(=O)[C@@H]3NC(=O)[C@H](CC(N)=O)NC(=O)[C@H](NC(=O)[C@@H](CC(C)C)NC)[C@H](O)c4ccc(c(Cl)c4)Oc4cc3cc(c4O[C@@H]3O[C@H](CO)[C@@H](O)[C@H](O)[C@H]3O[C@H]3C[C@](C)(N)[C@H](O)[C@H](C)O3)Oc3ccc(cc3Cl)[C@H]2O)c2ccc(O)c(c2)-c2c(O)cc(O)cc21)C(=O)O [MCC_000349] | xxxxx (xxxxx = <0.01) | xxxxx (xxxxx = <0.01) | xxx (xxx = 0.1-<1)
CCCCCCCCCCC(=O)N[C@@H](CCCCN)C(=O)NCCNC(=O)[C@H]1NC(=O)[C@H]2NC(=O)[C@H](NC(=O)[C@@H]3NC(=O)[C@H](CC(N)=O)NC(=O)[C@H](NC(=O)[C@@H](CC(C)C)NC)[C@H](O)c4ccc(c(Cl)c4)Oc4cc3cc(c4O[C@@H]3O[C@H](CO)[C@@H](O)[C@H](O)[C@H]3O[C@H]3C[C@](C)(N)[C@H](O)[C@H](C)O3)Oc3ccc(cc3Cl)[C@H]2O)c2ccc(O)c(c2)-c2c(O)cc(O)cc21 [MCC_005163] | xxxxx (xxxxx = <0.01) | xxxx (xxxx = 0.01-<0.1) | x (x = >4)
CCCCCCCCCCCC(=O)NC(CCCCN)C(=O)NC(CCCCN)C(=O)NC(CCCCNC(=O)C1NC(=O)C2NC(=O)C(NC(=O)C3NC(=O)C(CC(N)=O)NC(=O)C(NC(=O)C(CC(C)C)NC)C(O)c4ccc(c(Cl)c4)Oc4cc3cc(c4OC3OC(CO)C(O)C(O)C3OC3CC(C)(N)C(O)C(C)O3)Oc3ccc(cc3Cl)C2O)c2ccc(O)c(c2)-c2c(O)cc(O)cc21)C(=O)NC (stereo not drawn) [MCC_000493] | xxxxx (xxxxx = <0.01) | xxxxx (xxxxx = <0.01) | xx (xx = 1-4)
CCCCCCCCCCC(=O)N[C@@H](CCCCN)C(=O)N[C@@H](CCCCN)C(=O)NCc1cccc(CNC(=O)[C@H]2NC(=O)[C@H]3NC(=O)[C@H](NC(=O)[C@@H]4NC(=O)[C@H](CC(N)=O)NC(=O)[C@H](NC(=O)[C@@H](CC(C)C)NC)[C@H](O)c5ccc(c(Cl)c5)Oc5cc4cc(c5O[C@@H]4O[C@H](CO)[C@@H](O)[C@H](O)[C@H]4O[C@H]4C[C@](C)(N)[C@H](O)[C@H](C)O4)Oc4ccc(cc4Cl)[C@H]3O)c3ccc(O)c(c3)-c3c(O)cc(O)cc32)c1 [MCC_005044] | xxxxx (xxxxx = <0.01) | xxxxx (xxxxx = <0.01) | xxx (xxx = 0.1-<1)
CCCCCCCCCCCCCCC(=O)NC(CCCCN)C(=O)NC(CCCCN)C(=O)NC(CCCCNC(=O)C1NC(=O)C2NC(=O)C(NC(=O)C3NC(=O)C(CC(N)=O)NC(=O)C(NC(=O)C(CC(C)C)NC)C(O)c4ccc(c(Cl)c4)Oc4cc3cc(c4OC3OC(CO)C(O)C(O)C3OC3CC(C)(N)C(O)C(C)O3)Oc3ccc(cc3Cl)C2O)c2ccc(O)c(c2)-c2c(O)cc(O)cc21)C(=O)NC (stereo not drawn) [MCC_000495] | xxxx (xxxx = 0.01-<0.1) | xxxxx (xxxxx = <0.01) | xxx (xxx = 0.1-<1)
CNC(=O)C(CCCCNC(=O)C1NC(=O)C2NC(=O)C(NC(=O)C3NC(=O)C(CC(N)=O)NC(=O)C(NC(=O)C(CC(C)C)NC)C(O)c4ccc(c(Cl)c4)Oc4cc3cc(c4OC3OC(CO)C(O)C(O)C3OC3CC(C)(N)C(O)C(C)O3)Oc3ccc(cc3Cl)C2O)c2ccc(O)c(c2)-c2c(O)cc(O)cc21)NC(=O)C(CCCCN)NC(=O)C(CCCCN)NC(=O)c1ccc(Oc2ccc(Cl)cc2)cc1 (stereo not drawn) [MCC_000516] | xxxxxx | xxxxx (xxxxx = <0.01) | x (x = >4)
CNC(CC(C)C)C(=O)NC1C(=O)NC(CC(N)=O)C(=O)NC2C(=O)NC3C(=O)NC(C(=O)NC(C(=O)NCCCCC(NC(=O)C(CCCCN)NC(=O)C(CCCCN)NC(=O)C(CCCCN)NC(=O)c4ccc(Oc5ccccc5)cc4)C(=O)O)c4cc(O)cc(O)c4-c4cc3ccc4O)C(O)c3ccc(c(Cl)c3)Oc3cc2cc(c3OC2OC(CO)C(O)C(O)C2OC2CC(C)(N)C(O)C(C)O2)Oc2ccc(cc2Cl)C1O (stereo not drawn) [MCC_000194] | xxx (xxx = 0.1-<1) | xxx (xxx = 0.1-<1) | x (x = >4)
